Experimental data taken from publication PMC3964211, “Pharmacokinetic modeling optimizes inhibition of the ‘undruggable’ EWS-FLI1 transcription factor in Ewing Sarcoma” (Oncotarget, 2013).

Tests used:
[1] = Pharmacokinetics in SD rats, single IV injection; type: in vivo, Sprague-Dawly (SD) rats; conditions: for AUClast / AUC∞ / Clearance / Observed Cmax / Terminal Elimination Half-Life: analyte (S)-YK-4-279 in plasma
Method: To optimize dosing in animals, we determined the pharmacokinetics of YK-4-279 and its single enantiomers in Sprague-Dawly (SD) rats. Three rats of each gender were assigned to nine dose groups. Animals in Groups 1 through 3 received a single intravenous (IV) injection of racemic mixture, (S)-YK-4-279, or (R)-YK-4-279 at a dose of 25 mg/kg. Animals in Groups 4 through 9 received a single oral gavage administration of racemic mixture, (S)-YK-4-279, or (R)-YK-4-279 at a dosage level of 25 or 50 mg/kg. […] However, given that approximately 50 percent of the racemic mixture is (S)-YK-4-279 and the clearance […] the dose, the IV clearance of (S)-YK-4-279 is considered to be similar whether a racemic mixture or only (S)-YK-4-279 is administered. Systemic exposure to (S)-YK-4-279 was evaluated using Cmax and AUC values. Cmax and AUC8 values were similar between males and females for a given dose group. With an expected enantiomer ratio of 1:1 in the racemic dose, Group 2 animals would have received a 2-fold higher dose of (S)-YK-4-279 than Group 1 animals. […] Absolute bioavailability of (S)-YK-4-279 following gavage administration, using cremophor/ethanol as an excipient, in SD rats was only 2–6% (Table 2).
Nine SD rats of each gender were assigned to nine dose groups. Groups 1 through 3 received a single IV injection of racemic mixture, (S)-YK-4-279, or (R)-YK-4-279 at a dose of 25 mg/kg. Groups 4 through 9 received a single gavage administration of racemic mixture, (S)-YK-4-279, or (R)-YK-4-279 at a dosage level of 25 or 50 mg/kg. Blood samples were collected from one animal per group per time point at target time points of pre-dose, 5, 15, 30 and 60 minutes, and 2, 4, 8 and 12 hours following dosing. Plasma was obtained from the samples and analyzed for (S) and (R)-YK-4-279 concentrations.
The plasma and tumor sample analysis was performed using calibration standards and Quality Control (QC) samples prepared in control rat or mouse plasma and tumor tissues. Plasma and tumor calibration standards were prepared from stock solutions of YK-4-279. The calibration standards, blanks, QC samples, and study samples were then processed by solid-liquid extraction (SLE) followed by analysis using liquid chromatography with mass spectrometry (LC-MS). The LC-MS systems used for the analysis of YK-4-279 was composed of Shimadzo prominence pump and auto-sampler (Kyoto, Japan), a Sciex API 5000 MS (Toronto, Ontario), with turbo ion spary in the positive ion mode. The samples for the analysis of total YK-4-279 were injected into a 50 × 2 mm Gemini- NX, 5 ¼m column (Phenomenex, Torrance, CA). The samples for the analysis of the specific enantiomers of YK-4-279 were injected into a 150 × 2 mm Lux Cellulose-2, 3 ¼m Phenomenex column. The transitions monitored were 366 amu to 135 amu for YK-4-279 and 369 amu to 138 amu for the YK-4-279-d3 internal standard. YK-4-279 concentrations were calculated using peak area response ratios and a regression equation constructed from the concentrations and peak area response ratios of the calibration standards. The lower limit of quantitation was 5.0 ng/mL in plasma and […] in tumor tissue. The concentration-time profiles were evaluated by compartmental modeling and non-compartmental analysis using WinNonlin (Pharsight Corporation, Mountain View, CA). The PK parameters obtained from the compartmental modeling were used in simulations to identify optimal dose level and dosing schedule for maintaining plasma concentration of (S)-YK-4-279 above 3 ¼M.

[2] = Pharmacokinetics in C57BL/6 mice, IV or IP 75 mg/kg; type: in vivo; conditions: IV 75 mg/kg
Method: (§1) The poor oral bioavailability determined from the rat study caused us to focus on IV delivery. Since mice often metabolize compounds differently from rats, we also evaluated the intraperitoneal (IP) PK profle and compared it to the IV profile. We determined pharmacokinetics in C57BL/6 mice given IV (Figure 2A) or IP (Figure 2B) administrations of 75 mg/kg YK-4-279, which was the maximal solubility of compound in 20% Cremophor EL. […] In addition, drug levels in tumor were measured using SCID/bg mice with orthotopic xenografts that were treated with daily IV injections of (S)-YK-4-279 for 6 days. […]
(§2) The plasma and tumor sample analysis was performed using calibration standards and Quality Control (QC) samples prepared in control rat or mouse plasma and tumor tissues. […] The transitions monitored were 366 amu to 135 amu for YK-4-279 and 369 amu to 138 amu for the YK-4-279-d3 internal standard. YK-4-279 concentrations were calculated using peak area response ratios and a regression equation constructed from the concentrations and peak area response ratios of the calibration standards. The lower limit of quantitation was 5.0 ng/mL in plasma and […] in tumor tissue. The concentration-time profiles were evaluated by compartmental modeling and non-compartmental analysis using WinNonlin (Pharsight Corporation, Mountain View, CA). […]

A4573 xenografts = experiment: IV efficacy experiment, A4573 xenografts, with plasma and tumor drug levels; type: in vivo, SCID/bg mice
Method: as §1
Twenty Fox Chase SCID beige mice per sex were inoculated with 2 million of A4573 cells. Tumor volume was monitored every day by caliper. […]
as §2, with “tissue.” for “tissue. The concentration-time profiles were evaluated by compartmental modeling and non-compartmental analysis using WinNonlin (Pharsight Corporation, Mountain View, CA).”

[3] = SD rats, female (n=9), single IV injection 25 mg/kg
[4] = SD rats, male (n=9), single IV injection 25 mg/kg
[5] = SD rats, single IV injection 25 mg/kg, average of males and females, analyte (S)-YK-4-279

## COc1ccc(C(=O)C[C@]2(O)C(=O)Nc3c(Cl)ccc(Cl)c32)cc1 [(R)-YK-4-279]
[1]; SD rats (Supplemental table 1, not available)
  Clearance slower than the clearance of (S)-YK-4-279: approximately 25%
[1]; [3]
  AUClast: BLOQ
  AUC∞: BLOQ
  Clearance: BLOQ
  Observed Cmax: BLOQ
  Terminal Elimination Half-Life: BLOQ
[1]; [4]
  AUClast: BLOQ
  AUC∞: BLOQ
  Clearance: BLOQ
  Observed Cmax: BLOQ1
  Terminal Elimination Half-Life: BLOQ

## COc1ccc(C(=O)CC2(O)C(=O)Nc3c(Cl)ccc(Cl)c32)cc1 (centres unmarked) [YK-4-279]
[1]; [3]
  AUClast: 25.6 hr*¼M
  AUC∞: 25.9 hr*¼M
  Clearance: 44 mL/min/kg
  Observed Cmax: 37.1 ¼M
  Terminal Elimination Half-Life: 36.1 min
[1]; [4]
  AUClast: 26.5 hr*¼M
  AUC∞: 26.7 hr*¼M
  Clearance: 42.67 mL/min/kg
  Observed Cmax: 39.9 ¼M
  Terminal Elimination Half-Life: 33.8 min
[1]; [5]
  Average clearance: 43.33 mL/min/kg
  Average elimination half-life: 35 min
[2]
  Time that peak levels would exceed 3 ¼M: ~ 1 hour
A4573 xenografts; A4573 xenografts in SCID/bg mice, 75 mg/kg IV QD
  Effect on xenograft tumor growth: tumors did not regress nor reduce their growth rate
A4573 xenografts; SCID/bg mice with A4573 xenografts, repeated IV injections
  Plasma levels 2 hours following the final IV bolus dose: 1.5–18 ¼M
